Assay results published in patent US20250268876A1, “TREATMENT OF HIDRADENITIS SUPPURATIVA WITH ORISMILAST” (UNION THERAPEUTICS A/S, priority 2021, published 2025).

Assays:
[1] = test system: human PBMC; assay: Viability, serum-free, hPBMC, LPS (ATP); format: cell-based
Protocol: Viability, Serum-Free, hPBMC, LPS
The viability of the cells from the TNF-α assay is measured in the wells using the ATP vialight kit (Perkin Elmer, ATP-lite M, cat. no 6016949). The assay detects the amount of ATP using a bioluminescent method that utilizes an enzyme, luciferase, which catalyses the formation of light from ATP and luciferin according to the following reaction:
The emitted light intensity is linearly related to the ATP concentration and is measured using a luminometer. The effect (inhibition of viability) of a test compound was calculated using equation 1:
[formula] • where • So=Emitted light intensity reflecting the ATP concentration in the presence of 0.1% DMSO, • Sc=Emitted light intensity reflecting the ATP concentration in the presence of 10 μM Actinomycin in 0.1% DMSO and • Sx=Emitted light intensity reflecting the ATP concentration in the presence of test compound in 0.1% DMSO.
This model describes a sigmoidal curve with an adjustable baseline, a. […]
[formula] • where • C=concentration of test compound • % Effect=normalized response calculated as described in Equation 1 • Emin=min response as compound concentration approaches 0 • Emax=max response as concentration of tested compound is increasing • EC50=Concentration of tested compound giving a response in the middle of Emin and Emax • nH=Hill coefficient or curve slope.

[2] = test system: TNF-α; assay: LPS-induced TNF-α in ferrets after single oral administration; settings: oral 1, 3 and 10 mg/kg; 1 hour after LPS (3 mg/kg ip)
[3] = in vivo; settings: ferret, po
[4] = target: T1, PDE4B2 (Homo sapiens, UniProt Q07343); assay: IMAP fluorescence polarisation PDE4 subtype assay; format: biochemical
Protocol: Inhibition of PDE4 subtypes by the compound of formula (I) was tested using IMAP technology, which is based on the high affinity binding of phosphate by immobilized metal coordination complexes on nanoparticles. The binding reagent complexes with phosphate groups on nucleotide monophosphate generated from cyclic nucleotides (cAMP/cGMP) through phosphodiesterases. With fluorescence polarisation detection, binding causes a change in the rate of the molecular motion of the phosphate bearing molecule, and results in an increase in the fluorescence polarization value observed for the fluorescent label attached to the substrate.
Stocks of the compound of formula (I) were prepared in 100% DMSO. All assays were performed in 3% (final) DMSO for the IMAP assay. The compound was tested in duplicate against the PDE isoform panel at a range of concentrations (10^−10, 10^−9, 10^−8, 10^−7 M).

[5] = target: PDE4A4 (Homo sapiens, UniProt P27815); assay: biochemical
[6] = target: PDE4A10 (Homo sapiens, UniProt P27815); assay: biochemical
[7] = target: T2, PDE4D3 (Homo sapiens, UniProt Q08499); assay: IMAP fluorescence polarisation PDE4 subtype assay; format: biochemical; settings: compound 10^−7 M
[8] = target: T1, PDE4B2; format: biochemical
Protocol: (§1) Enzyme Preparations: Partially purified human recombinant phosphodiesterases (PDEs) were obtained by cloning cDNA and expressing in S. frugiperda insect cells using a baculovirus expression system. Cells are harvested from culture by centrifuging at 400×g for 5 minutes. Cell pellet is resuspended in 20 ml of RIPA Buffer (150 mM NaCl, 10 mM Tris, 0.1% NP-40, pH8.3), 4 ml/200 ml of culture, plus protease inhibitors (100 μl/10 ml) and incubated on ice for 10-20 minutes then spun at 3500×g for 10 minutes at 4° C. Supernatant is kept and the pellet thrown away.
(§2) Tritium-labelled cyclic AMP is hydrolysed to 5′-AMP o by PDE. The 5′-AMP is then further hydrolysed to adenosine by nucleotidase in snake venom. An anion-exchange resin binds all charged nucleotides and leaves [^3H]adenosine as the only labelled compound to be counted by liquid scintillation.
(§3) 50 μl of diluted PDE enzyme was incubated with 50 μl of [^3H]-cAMP (specific activity 25 Ci/mmol) and 11 μl of 50% DMSO (or compound dilution) for 20 minutes at 30° C. The enzyme was diluted in 20 mM Tris HCl pH7.4 (×2.2 final concentration) and [3H]-cAMP was diluted in 10 mM MgCl2, 40 mM Tris HCl pH 7.4 (×2.2 final concentration). Reactions were carried out in Greiner 96 deep well 1 ml master-block. The plates were centrifuged for 9 seconds before the 20 minutes incubation. […] After incubation 200 μl Dowex resin (1×8, 200-400 mesh) was added and the plate shaken for 20 minutes then centrifuged for 3 minutes at 1000×g. 50 μl of supernatant was removed and added to 200 μl of MicroScint-20 in white plates (Greiner 96well Optiplate) and shaken for 30 minutes before reading on Perkin Elmer TopCount Scintillation Counter. IC50 values were calculated using GraphPad Prism software (version 8).

[9] = target: PDE4D5 (Homo sapiens, UniProt Q08499); format: biochemical
Protocol: as §1, §2, §3

[10] = target: PDE4C2 (Homo sapiens, UniProt Q08493); format: biochemical
Protocol: as §1, §2, §3

[11] = target: PDE4B1 (Homo sapiens, UniProt Q07343); format: biochemical
Protocol: as §1, §2, §3

[12] = target: PDE4B3 (Homo sapiens, UniProt Q07343); format: biochemical
Protocol: as §1, §2, §3

[13] = target: PDE4D4 (Homo sapiens, UniProt Q08499); format: biochemical
Protocol: as §1, §2, §3

[14] = target: T2, PDE4D3; format: biochemical
Protocol: as §1, §2, §3

[15] = target: PDE4D1 (Homo sapiens, UniProt Q08499); format: biochemical
Protocol: as §1, §2, §3

[16] = target: PDE4D2 (Homo sapiens, UniProt Q08499); format: biochemical
Protocol: as §1, §2, §3

[17] = target: PDE4D7 (Homo sapiens, UniProt Q08499); format: biochemical
Protocol: as §1, §2, §3

T1 sequence (Q07343 1-564 isoform Q07343-2): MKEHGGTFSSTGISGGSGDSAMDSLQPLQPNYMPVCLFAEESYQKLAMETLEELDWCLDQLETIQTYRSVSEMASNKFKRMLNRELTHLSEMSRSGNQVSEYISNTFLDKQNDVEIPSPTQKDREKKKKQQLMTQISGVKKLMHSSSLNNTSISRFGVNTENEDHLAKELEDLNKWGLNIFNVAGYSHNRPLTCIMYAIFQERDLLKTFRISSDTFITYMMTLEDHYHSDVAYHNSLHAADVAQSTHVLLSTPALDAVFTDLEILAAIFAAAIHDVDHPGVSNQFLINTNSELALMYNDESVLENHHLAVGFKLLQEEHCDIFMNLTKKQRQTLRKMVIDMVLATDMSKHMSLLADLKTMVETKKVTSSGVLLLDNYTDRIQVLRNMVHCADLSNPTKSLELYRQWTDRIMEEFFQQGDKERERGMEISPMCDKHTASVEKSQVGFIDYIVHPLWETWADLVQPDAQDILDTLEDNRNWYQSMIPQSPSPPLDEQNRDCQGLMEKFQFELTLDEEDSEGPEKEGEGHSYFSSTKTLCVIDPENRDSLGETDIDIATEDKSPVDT
T2 sequence (Q08499 1-673 isoform Q08499-2): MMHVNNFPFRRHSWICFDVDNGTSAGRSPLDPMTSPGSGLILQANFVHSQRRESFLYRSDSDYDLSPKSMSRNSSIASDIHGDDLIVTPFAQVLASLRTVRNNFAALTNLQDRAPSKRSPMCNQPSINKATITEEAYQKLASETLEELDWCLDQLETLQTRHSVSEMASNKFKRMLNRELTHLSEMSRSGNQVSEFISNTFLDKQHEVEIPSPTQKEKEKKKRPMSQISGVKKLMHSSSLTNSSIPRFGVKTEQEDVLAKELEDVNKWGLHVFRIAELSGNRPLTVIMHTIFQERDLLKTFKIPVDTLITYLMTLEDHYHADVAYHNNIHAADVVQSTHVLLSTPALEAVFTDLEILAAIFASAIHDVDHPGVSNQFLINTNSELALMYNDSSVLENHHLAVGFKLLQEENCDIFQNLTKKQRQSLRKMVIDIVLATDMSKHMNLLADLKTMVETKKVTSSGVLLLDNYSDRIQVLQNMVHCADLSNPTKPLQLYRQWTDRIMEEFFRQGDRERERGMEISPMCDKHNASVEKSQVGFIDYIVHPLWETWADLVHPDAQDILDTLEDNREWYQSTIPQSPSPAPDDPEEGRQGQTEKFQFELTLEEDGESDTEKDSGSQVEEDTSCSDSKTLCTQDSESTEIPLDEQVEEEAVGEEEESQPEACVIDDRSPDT
Sequence of PDE4D7 (Q08499 1-748 isoform Q08499-11): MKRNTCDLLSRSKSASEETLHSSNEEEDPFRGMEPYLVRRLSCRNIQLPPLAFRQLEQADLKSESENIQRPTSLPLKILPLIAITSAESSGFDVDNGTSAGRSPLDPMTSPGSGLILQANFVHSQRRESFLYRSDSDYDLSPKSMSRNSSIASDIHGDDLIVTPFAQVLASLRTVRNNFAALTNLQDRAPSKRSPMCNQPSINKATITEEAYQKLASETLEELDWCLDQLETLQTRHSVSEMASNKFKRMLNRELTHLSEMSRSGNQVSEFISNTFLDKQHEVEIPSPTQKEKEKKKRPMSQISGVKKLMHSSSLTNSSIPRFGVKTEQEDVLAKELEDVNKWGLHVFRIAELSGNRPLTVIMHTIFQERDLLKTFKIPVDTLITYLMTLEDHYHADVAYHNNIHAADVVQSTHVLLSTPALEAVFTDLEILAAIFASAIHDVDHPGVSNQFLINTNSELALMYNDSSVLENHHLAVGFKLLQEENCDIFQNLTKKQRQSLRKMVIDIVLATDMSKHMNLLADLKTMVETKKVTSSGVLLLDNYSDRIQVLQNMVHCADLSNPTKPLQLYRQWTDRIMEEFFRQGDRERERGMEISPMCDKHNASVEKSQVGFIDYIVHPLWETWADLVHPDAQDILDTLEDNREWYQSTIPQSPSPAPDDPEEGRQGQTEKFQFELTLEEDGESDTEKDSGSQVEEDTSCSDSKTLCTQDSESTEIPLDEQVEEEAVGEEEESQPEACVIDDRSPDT
Sequence of PDE4C2 (Q08493 107-712): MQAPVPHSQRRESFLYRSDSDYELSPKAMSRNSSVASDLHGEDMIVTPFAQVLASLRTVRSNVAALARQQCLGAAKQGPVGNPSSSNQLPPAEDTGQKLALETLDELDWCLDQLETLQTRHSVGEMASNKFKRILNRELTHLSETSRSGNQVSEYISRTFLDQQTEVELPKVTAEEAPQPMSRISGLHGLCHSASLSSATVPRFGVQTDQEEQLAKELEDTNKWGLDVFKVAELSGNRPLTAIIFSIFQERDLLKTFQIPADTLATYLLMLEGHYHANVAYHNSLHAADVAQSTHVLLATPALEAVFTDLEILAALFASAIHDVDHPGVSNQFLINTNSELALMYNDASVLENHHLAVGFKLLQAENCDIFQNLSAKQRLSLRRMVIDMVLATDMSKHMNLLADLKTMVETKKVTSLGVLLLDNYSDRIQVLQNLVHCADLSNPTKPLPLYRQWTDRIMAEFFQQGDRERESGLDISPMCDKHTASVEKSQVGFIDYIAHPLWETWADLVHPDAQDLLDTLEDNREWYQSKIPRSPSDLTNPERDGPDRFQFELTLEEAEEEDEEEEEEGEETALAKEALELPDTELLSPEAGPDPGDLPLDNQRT
Sequence of PDE4D1 (Q08499 1-584 isoform Q08499-4): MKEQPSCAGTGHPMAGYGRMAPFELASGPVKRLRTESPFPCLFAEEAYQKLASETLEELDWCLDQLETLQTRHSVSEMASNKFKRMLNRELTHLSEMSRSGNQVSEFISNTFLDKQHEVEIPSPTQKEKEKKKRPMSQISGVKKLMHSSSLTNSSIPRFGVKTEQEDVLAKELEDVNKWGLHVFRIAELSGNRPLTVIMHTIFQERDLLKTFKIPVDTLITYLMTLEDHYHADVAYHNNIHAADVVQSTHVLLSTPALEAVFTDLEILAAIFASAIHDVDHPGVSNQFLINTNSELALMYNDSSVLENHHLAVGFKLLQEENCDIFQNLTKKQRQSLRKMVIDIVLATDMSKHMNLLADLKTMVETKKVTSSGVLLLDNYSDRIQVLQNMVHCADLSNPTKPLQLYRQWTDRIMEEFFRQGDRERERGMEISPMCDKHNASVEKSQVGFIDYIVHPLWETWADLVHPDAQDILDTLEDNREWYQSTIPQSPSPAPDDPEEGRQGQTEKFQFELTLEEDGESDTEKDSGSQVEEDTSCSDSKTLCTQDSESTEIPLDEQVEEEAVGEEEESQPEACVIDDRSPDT
Sequence of PDE4B3 (Q07343 1-721 isoform Q07343-3): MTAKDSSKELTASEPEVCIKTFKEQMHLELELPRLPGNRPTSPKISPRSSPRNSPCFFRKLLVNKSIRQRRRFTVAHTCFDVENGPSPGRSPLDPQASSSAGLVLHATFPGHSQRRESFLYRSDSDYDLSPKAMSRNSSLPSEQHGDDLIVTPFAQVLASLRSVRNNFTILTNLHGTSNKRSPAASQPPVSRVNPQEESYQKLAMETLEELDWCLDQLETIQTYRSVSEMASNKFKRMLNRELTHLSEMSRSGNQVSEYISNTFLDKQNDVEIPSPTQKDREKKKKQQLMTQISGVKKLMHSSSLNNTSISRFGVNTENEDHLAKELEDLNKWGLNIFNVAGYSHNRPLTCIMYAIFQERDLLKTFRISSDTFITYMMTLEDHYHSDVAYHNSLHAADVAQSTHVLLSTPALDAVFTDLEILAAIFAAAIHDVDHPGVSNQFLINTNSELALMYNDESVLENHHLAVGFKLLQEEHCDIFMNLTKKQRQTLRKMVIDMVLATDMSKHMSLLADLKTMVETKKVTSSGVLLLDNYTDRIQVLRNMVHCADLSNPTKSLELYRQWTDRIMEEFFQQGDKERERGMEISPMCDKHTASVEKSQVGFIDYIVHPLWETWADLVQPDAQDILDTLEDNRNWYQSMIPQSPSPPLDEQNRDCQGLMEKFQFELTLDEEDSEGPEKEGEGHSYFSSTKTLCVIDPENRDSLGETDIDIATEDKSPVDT
Sequence of PDE4D5 (Q08499 1-745 isoform Q08499-6): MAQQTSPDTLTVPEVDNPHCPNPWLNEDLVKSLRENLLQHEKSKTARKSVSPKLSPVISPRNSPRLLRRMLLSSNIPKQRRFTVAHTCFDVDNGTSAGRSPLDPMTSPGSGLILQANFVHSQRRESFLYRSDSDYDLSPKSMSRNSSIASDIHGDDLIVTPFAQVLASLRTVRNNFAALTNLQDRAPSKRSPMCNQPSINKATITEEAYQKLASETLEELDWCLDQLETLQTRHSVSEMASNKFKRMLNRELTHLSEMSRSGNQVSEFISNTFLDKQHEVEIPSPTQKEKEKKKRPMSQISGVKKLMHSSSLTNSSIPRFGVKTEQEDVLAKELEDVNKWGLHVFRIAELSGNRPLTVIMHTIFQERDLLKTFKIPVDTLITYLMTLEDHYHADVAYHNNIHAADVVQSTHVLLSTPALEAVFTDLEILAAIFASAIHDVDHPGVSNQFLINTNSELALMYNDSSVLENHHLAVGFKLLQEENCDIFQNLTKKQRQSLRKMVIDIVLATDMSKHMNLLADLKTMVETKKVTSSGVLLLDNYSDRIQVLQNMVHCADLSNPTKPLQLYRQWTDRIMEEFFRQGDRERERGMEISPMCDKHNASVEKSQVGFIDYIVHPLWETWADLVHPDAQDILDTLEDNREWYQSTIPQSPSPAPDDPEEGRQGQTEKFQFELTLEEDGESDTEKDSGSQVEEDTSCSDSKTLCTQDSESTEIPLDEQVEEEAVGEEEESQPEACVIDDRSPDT

In the case of `O=C(Cc1c(Cl)c[n+]([O-])cc1Cl)c1ccc(OC(F)F)c2c1OC1(CCS(=O)(=O)CC1)O2` [Compound (I), 2-(3,5-Dichloro-1-oxido-pyridine-4-yl)-1-(7-difluoro-methoxy-2′,3′,5′,6′-tetrahydro-spiro[1,3-benzodioxole-2,4′-(4H)-thiopyran-1′,1′-dioxide]-4-yl)ethanone], the “Viability Emax, %” value [1] is reported as 7%, the EC50 ([1]; Homo sapiens, PBMC) is reported as greater than 9990 nM and the “increase of TNF-α levels observed at 1 hour” value [2] is reported as “attenuated, in a clear dose-related manner”. For the same compound, the NOAEL at 3 h [3] was 3 mg/kg, the inhibition at 0.1 µM ([4]; compound 10^−7 M) was 61% and the inhibition at 0.01 µM ([4]; compound 10^−8 M) was 41%. The inhibition at 0.001 µM ([4]; compound 10^−9 M) was 18%, the inhibition at 0.0001 µM ([4]; compound 10^−10 M) was 12% and the IC50 [5] was 11 nM. It also gave an IC50 [6] of 52 nM, an inhibition at 0.1 µM [7] of 74% and an IC50 [8] of 6 nM. For the same compound, the IC50 [9] was 3 nM, the IC50 [10] was 104 nM and the IC50 [11] was 16 nM. The IC50 [12] was 3 nM, the IC50 [13] was 8 nM and the IC50 [14] was 8 nM. For the same compound, the IC50 [15] was 9 nM, the IC50 [16] was 9 nM and the IC50 [17] was 3 nM.
